Data as given in EPA's ToxRefDB 2.

How the values were obtained:
[1] = system: rat; conditions: Combined chronic toxicity/carcinogenicity, sprague dawley, Oral, Feed, dose end: 104 week, group: systemic
[2] = system: rat; conditions: Subchronic oral toxicity in rodents, sprague dawley, Feed, dose end: 3 month, group: systemic
[3] = system: dog; conditions: Subchronic oral toxicity in nonrodent, beagle, Capsule, dose end: 90 day, group: systemic
[4] = system: rat; conditions: Prenatal developmental toxicity study, other, Oral, Gavage/Intubation, dose end: 15 GD
[5] = system: mouse; conditions: Carcinogenicity, cd1, Oral, Feed, dose end: 78 week, group: systemic
[6] = system: dog; conditions: Chronic toxicity, beagle, Oral, Capsule, dose end: 52 week, group: systemic
[7] = system: rat; conditions: Multigenerational reproductive toxicity study, sprague dawley, Oral, Feed, dose end: 2 generation
[8] = system: primate; conditions: Sub-acute repeat dose toxicity, Oral, Gavage/Intubation, dose end: 28 day, group: systemic
[9] = system: rat; conditions: Sub-acute repeat dose toxicity; Oral; Gavage/Intubation; dose end: 10 day; group: systemic; systemic / hematology / erythrocyte (rbc) count differential / erythrocyte (rbc) + systemic / hematology / hematocrit (hct) / hematocrit (…
[10] = system: rabbit; conditions: Sub-acute repeat dose toxicity; Oral; Gavage/Intubation; dose end: 4 day; group: systemic; systemic / hematology / erythrocyte (rbc) count differential / erythrocyte (rbc) + systemic / hematology / hematocrit (hct) / hematocrit (…
[11] = system: rat; conditions: Sub-acute repeat dose toxicity, Oral, Gavage/Intubation, dose end: 34 day, group: systemic
[12] = system: primate; conditions: Sub-acute repeat dose toxicity; Oral; Gavage/Intubation; dose end: 10 day; group: systemic; systemic / clinical chemistry / [other] / [other] + systemic / clinical chemistry / apolipoprotein a1 / apolipoprotein a1 + systemic / …
[13] = system: mouse; conditions: Carcinogenicity, b6c3f1, Oral, Feed, dose end: 24 month, group: systemic
[14] = system: rat; conditions: Combined chronic toxicity/carcinogenicity; fischer; Oral; Feed; dose end: 2 year; group: systemic; systemic / pathology microscopic / kidney / dilatation + systemic / pathology microscopic / kidney / hyperplasia + systemic / pathology …
[15] = system: mouse; conditions: Subchronic oral toxicity in rodents, b6c3f1, Feed, dose end: 13 week, group: systemic
[16] = system: dog; conditions: Chronic toxicity, beagle, Oral, Feed, dose end: 1 year, group: systemic
[17] = system: rat; conditions: Subchronic oral toxicity in rodents, fischer, Feed, dose end: 13 week, group: systemic
[18] = system: mouse; conditions: Subchronic oral toxicity in rodents, b6c3f1, Feed, dose end: 14 week, group: systemic
[19] = system: rat; conditions: Carcinogenicity, fischer, Oral, Feed, dose end: 105 week, group: systemic
[20] = system: mouse; conditions: Carcinogenicity; b6c3f1; Oral; Feed; dose end: 105 week; group: systemic; systemic / in life observation / body weight / body weight + systemic / pathology microscopic / kidney / mineralization + systemic / …
[21] = systemic / in life observation / body weight / body weight gain + systemic / pathology microscopic / liver / hypertrophy + systemic / …
[22] = systemic / clinical chemistry / cholesterol / cholesterol + systemic / clinical chemistry / lipids / phospholipids + systemic / hematology…
[23] = systemic / hematology / platelet / platelet + systemic / clinical chemistry / triglycerides / triglycerides + systemic / clinical chemistry…
[24] = systemic / clinical chemistry / alkaline phosphatase (alp/alk) / alkaline phosphatase (alp/alk) + systemic / clinical chemistry / calcium / …
[25] = systemic / clinical chemistry / alkaline phosphatase (alp/alk) / alkaline phosphatase (alp/alk) + systemic / organ weight / liver / absolute…
[26] = group: developmental, developmental / developmental malformation / bone / full supernumerary
[27] = group: maternal, systemic / in life observation / body weight / body weight gain
[28] = systemic / organ weight / liver / absolute + systemic / organ weight / liver / relative to body weight + systemic / clinical chemistry / …
[29] = group: offspring, systemic / in life observation / body weight / offspring (pup) weight
[30] = group: parental, systemic / in life observation / body weight / body weight + systemic / in life observation / food consumption / food consumption + systemic…
[31] = systemic / in life observation / clinical signs / pulse/pressure + systemic / clinical chemistry / albumin / albumin + systemic / hematology…
[32] = systemic / in life observation / clinical signs / pulse/pressure + systemic / in life observation / clinical signs / arrhythmia + systemic…
[33] = systemic / clinical chemistry / [other] / [other] + systemic / clinical chemistry / globulins / globulins + systemic / clinical chemistry / …
[34] = systemic / in life observation / body weight / body weight + systemic / clinical chemistry / [other] / [other] + systemic / clinical …
[35] = systemic / organ weight / heart / relative to body weight + systemic / organ weight / kidney / absolute + systemic / organ weight / kidney…
[36] = systemic / organ weight / brain / relative to body weight + systemic / organ weight / kidney / absolute
[37] = systemic / organ weight / brain / relative to body weight + systemic / organ weight / kidney / absolute + systemic / organ weight / kidney…
[38] = systemic / clinical chemistry / alkaline phosphatase (alp/alk) / alkaline phosphatase (alp/alk) + systemic / pathology microscopic / kidney…
[39] = systemic / clinical chemistry / alanine aminotransferase (alt/sgpt) / alanine aminotransferase (alt/sgpt) + systemic / clinical chemistry / …
[40] = systemic / organ weight / liver / absolute + systemic / organ weight / liver / relative to body weight + systemic / pathology microscopic / …
[41] = systemic / pathology microscopic / kidney / hyperplasia + systemic / pathology microscopic / liver / hyperplasia + systemic / pathology …

Q: CC(C)(C)[C@H](O)/C(=C\c1ccc(Cl)cc1)n1cncn1 [Uniconazole-P] was tested. Which LOAEL [1, 21] did it give?
A: Its LOAEL is 39.4 mg/kg/day.

Q: What about the NOAEL [1, 21] of the same compound?
A: The NOAEL was 7.78 mg/kg/day.

Q: What about the LEL ([1]; systemic / pathology microscopic / liver / hypertrophy + systemic / pathology microscopic / liver / vacuolization) of the same compound?
A: The LEL was 7.78 mg/kg/day.

Q: What about the NEL ([1]; systemic / pathology microscopic / liver / hypertrophy + systemic / pathology microscopic / liver / vacuolization + systemic / in life …) of the same compound?
A: Its NEL is 1.48 mg/kg/day.

Q: And the LOAEL [2, 22]?
A: Its LOAEL is 100 mg/kg/day.

Q: What about the NOAEL [2, 22] of the same compound?
A: The NOAEL was 10 mg/kg/day.

Q: What about the LEL [2, 23] of the same compound?
A: Its LEL is 3 mg/kg/day.

Q: And the NEL [2, 23]?
A: Its NEL is less than 3 mg/kg/day.

Q: And the NEL [3, 24]?
A: The NEL was 5 mg/kg/day.

Q: And the NOAEL [3, 24]?
A: The NOAEL was 5 mg/kg/day.

Q: What about the LEL [3, 25] of the same compound?
A: Its LEL is 20 mg/kg/day.

Q: And the LOAEL [3, 25]?
A: Its LOAEL is 20 mg/kg/day.

Q: What about the LEL [4, 26] of the same compound?
A: Its LEL is 25 mg/kg/day.

Q: What about the LOAEL [4, 26] of the same compound?
A: Its LOAEL is 25 mg/kg/day.

Q: What about the NEL [4, 26] of the same compound?
A: Its NEL is 5 mg/kg/day.

Q: And the NOAEL [4, 26]?
A: Its NOAEL is 5 mg/kg/day.

Q: And the LEL [4, 27]?
A: The LEL was 25 mg/kg/day.

Q: What about the LOAEL [4, 27] of the same compound?
A: The LOAEL was 25 mg/kg/day.

Q: And the NEL [4, 27]?
A: Its NEL is 5 mg/kg/day.

Q: And the NOAEL [4, 27]?
A: Its NOAEL is 5 mg/kg/day.

Q: What about the NEL ([5]; systemic / pathology microscopic / liver / adenoma + systemic / pathology microscopic / liver / adenoma/carcinoma combined + systemic / in …) of the same compound?
A: The NEL was 225 mg/kg/day.

Q: What about the LOAEL ([5]; systemic / pathology microscopic / liver / hypertrophy + systemic / pathology microscopic / liver / inflammation + systemic / pathology …) of the same compound?
A: Its LOAEL is 225 mg/kg/day.

Q: And the NOAEL ([5]; systemic / pathology microscopic / liver / hypertrophy + systemic / pathology microscopic / liver / necrosis + systemic / pathology …)?
A: The NOAEL was 30 mg/kg/day.

Q: And the NEL ([6]; systemic / clinical chemistry / alkaline phosphatase (alp/alk) / alkaline phosphatase (alp/alk) + systemic / organ weight / thymus / …)?
A: The NEL was 2 mg/kg/day.

Q: And the LOAEL ([6]; systemic / organ weight / liver / absolute + systemic / organ weight / liver / relative to body weight)?
A: The LOAEL was 20 mg/kg/day.

Q: What about the LEL [6, 28] of the same compound?
A: Its LEL is 20 mg/kg/day.

Q: And the NOAEL [6, 28]?
A: The NOAEL was 2 mg/kg/day.

Q: And the LEL [7, 29]?
A: Its LEL is 75 mg/kg/day.

Q: What about the LOAEL [7, 29] of the same compound?
A: Its LOAEL is 75 mg/kg/day.

Q: What about the NEL [7, 29] of the same compound?
A: Its NEL is 7.5 mg/kg/day.

Q: And the NOAEL [7, 29]?
A: The NOAEL was 7.5 mg/kg/day.

Q: What about the LOAEL [7, 30] of the same compound?
A: The LOAEL was 75 mg/kg/day.

Q: What about the NEL [7, 30] of the same compound?
A: Its NEL is 0.75 mg/kg/day.

Q: And the NOAEL [7, 30]?
A: The NOAEL was 7.5 mg/kg/day.

Q: And the LEL ([7]; group: parental, systemic / organ weight / liver / nos)?
A: The LEL was 7.5 mg/kg/day.

Q: What does the source list for CC(C)c1nnc2ccc(-c3ocnc3-c3cc(F)ccc3F)cn12?
A: LEL [8, 31]: 30 mg/kg/day; NEL [8, 31]: < 30 mg/kg/day; LOAEL [8, 32]: > 500 mg/kg/day; NOAEL [8, 32]: ≥ 500 mg/kg/day; LOAEL [9]: > 2000 mg/kg/day; NEL [9]: < 250 mg/kg/day; NOAEL [9]: ≥ 2000 mg/kg/day; LEL [10]: 40 mg/kg/day; LOAEL [10]: > 80 mg/kg/day; NEL [10]: 20 mg/kg/day; NOAEL [10]: ≥ 80 mg/kg/day; LEL [11, 33]: 100 mg/kg/day; NEL [11, 33]: < 100 mg/kg/day; LOAEL [11, 34]: > 2000 mg/kg/day; NOAEL [11, 34]: ≥ 2000 mg/kg/day; LEL [12]: 1000 mg/kg/day; LOAEL [12]: > 1000 mg/kg/day; NEL [12]: 300 mg/kg/day; NOAEL [12]: ≥ 1000 mg/kg/day

Q: Which NEL ([13]; systemic / organ weight / heart / relative to body weight) does the source give for Cc1ccn2nc(S(=O)(=O)Nc3c(F)cccc3F)nc2n1 [Flumetsulam] here?
A: Its NEL is 500 mg/kg/day.

Q: What about the LEL [13, 35] of the same compound?
A: The LEL was 1000 mg/kg/day.

Q: And the LOAEL [13, 35]?
A: The LOAEL was greater than 1000 mg/kg/day.

Q: What about the NOAEL [13, 35] of the same compound?
A: The NOAEL was no less than 1000 mg/kg/day.

Q: And the LEL [14]?
A: Its LEL is 1000 mg/kg/day.

Q: And the LOAEL [14]?
A: Its LOAEL is 1000 mg/kg/day.

Q: And the NEL [14]?
A: Its NEL is 500 mg/kg/day.

Q: What about the NOAEL [14] of the same compound?
A: The NOAEL was 500 mg/kg/day.

Q: And the NEL [15, 36]?
A: The NEL was 1000 mg/kg/day.

Q: And the NOAEL [15, 36]?
A: The NOAEL was 1000 mg/kg/day.

Q: What about the LEL [15, 37] of the same compound?
A: Its LEL is 5000 mg/kg/day.

Q: What about the LOAEL [15, 37] of the same compound?
A: Its LOAEL is 5000 mg/kg/day.

Q: And the LOAEL [16, 38]?
A: The LOAEL was 500 mg/kg/day.

Q: And the NEL [16, 38]?
A: The NEL was 20 mg/kg/day.

Q: What about the NOAEL [16, 38] of the same compound?
A: The NOAEL was 100 mg/kg/day.

Q: What about the LEL ([16]; systemic / organ weight / pituitary gland / relative to body weight) of the same compound?
A: Its LEL is 100 mg/kg/day.

Q: And the LOAEL [17, 39]?
A: The LOAEL was 1000 mg/kg/day.

Q: And the NOAEL [17, 39]?
A: The NOAEL was 250 mg/kg/day.

Q: What about the NEL ([17]; systemic / hematology / erythrocyte (rbc) count differential / erythrocyte (rbc) + systemic / hematology / hemoglobin (hgb) / hemoglobin (…) of the same compound?
A: The NEL was 2500 mg/kg/day.

Q: For O=C(c1ccccc1)c1ccccc1 [Benzophenone], which LOAEL ([18]; systemic / clinical chemistry / bile acids / bile acids + systemic / clinical chemistry / sorbitol dehydrogenase / sorbitol dehydrogenase + …) is on record?
A: Its LOAEL is 404 mg/kg/day.

Q: What about the LEL [18, 40] of the same compound?
A: Its LEL is 200 mg/kg/day.

Q: And the NEL [18, 40]?
A: The NEL was less than 200 mg/kg/day.

Q: What about the LOAEL ([19]; systemic / in life observation / body weight / body weight + systemic / pathology microscopic / kidney / hyperplasia + systemic / pathology …) of the same compound?
A: The LOAEL was 30 mg/kg/day.

Q: And the LEL [19, 41]?
A: Its LEL is 15 mg/kg/day.

Q: What about the NEL [19, 41] of the same compound?
A: Its NEL is less than 15 mg/kg/day.

Q: And the LEL [20]?
A: The LEL was 35 mg/kg/day.

Q: What about the LOAEL [20] of the same compound?
A: The LOAEL was 70 mg/kg/day.

Q: And the NEL [20]?
A: Its NEL is less than 35 mg/kg/day.
